Measured values published in the supplement of paper PMC11208160.

Test: recombinant UMI read abundance after kanamycin selection (control-corrected) (log10(CPM+1)); higher = more efficient recombination; extreme values may be limits of the assay; sequences stand for … in AGTGCAGAGAAAATCGGCCAGTTTTCTCTGCCTGCAGTCCGCATGCCGTGGGACCCCTTGGGTTCTAACCTGTTGCCTAGATTTATGCAGCGGACTGCCTTTCTCCCAAAGTGATAAACCGG…AGGTTGGTTTCACT; site = the 11-nt donor
In short: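 The measure is log10(CPM+1) for recombinant UMIs. These were PCR-amplified across the donor–target junction and sequenced after Escherichia coli carrying a donor and donor-binding-loop pair library and a target plasmid with T7-inducible IS621 bridge recombinase was plated on IPTG (0.07 mM) plus kanamycin or unselected. CPM were averaged over two replicates and scaled by control-derived factors.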
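Note: IS621 bridge recombinase in Escherichia coli cells against a fixed T5 target plasmid.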

| Sequence | recombinant UMI read abundance (log10) |
| --- | --- |
| AGAGAGGCATGGACCGGTTTTCCCGGTAATCCGTATTTGCT (site AGAAAGGCTAG) | 2.43 |
| AGAGAGGCATGGACCGGTTTTCCCGGTAATCCGTATTTGCT (site AGACAGGCTAG) | 0.828 |
| AGAGAGGCATGGACCGGTTTTCCCGGTAATCCGTATTTGCT (site AGAGAGGCTAG) | 2.19 |
| AGAGAGGCATGGACCGGTTTTCCCGGTAATCCGTATTTGCT (site AGATAGGCTAG) | 1.69 |
| AGAGATGCATGGACCGGTTTTCCCGGTAATCCGTATTTGGG (site AGAGATGCTCC) | 1.2 |
| AGAGCATCATGGACCGGTTTTCCCGGTAATCCGTATTTGCT (site AGAGCATCTAG) | 2.16 |
| AGAGCATCATGGACCGGTTTTCCCGGTAATCCGTATTTGCT (site CGATCATCTAG) | 0 |
| AGAGCTTCATGGACCGGTTTTCCCGGTAATCCGTATTTGGA (site AGAGCTTCTTC) | 2.31 |
| AGAGTATCATGGACCGGTTTTCCCGGTAATCCGTATTTGAA (site ACAGTATCTTG) | 2.21 |
| AGAGTATCATGGACCGGTTTTCCCGGTAATCCGTATTTGAA (site AGAGTATCTTT) | 3.15 |
| AGAGTGGCATGGACCGGTTTTCCCGGTAATCCGTATTTGGT (site AGAGTGGCTAC) | 1.47 |
| AGAGTGGCATGGACCGGTTTTCCCGGTAATCCGTATTTGGT (site CGAGTGGCTAC) | 0.973 |
| AGAGTGGCATGGACCGGTTTTCCCGGTAATCCGTATTTGGT (site GGAGTGGCTAC) | 0.101 |
| AGAGTGGCATGGACCGGTTTTCCCGGTAATCCGTATTTGGT (site TGAGTGGCTAC) | 0.546 |
| AGATATCCATGGACCGGTTTTCCCGGTAATCCGTATTTGAT (site AGATATCCTAT) | 1.12 |
| AGATCAGCATGGACCGGTTTTCCCGGTAATCCGTATTTGCT (site AGATCAGCTAG) | 2.68 |
| AGATCAGCATGGACCGGTTTTCCCGGTAATCCGTATTTGCT (site CGATCATCTAG) | 0 |
| AGATCAGCATGGACCGGTTTTCCCGGTAATCCGTATTTGGG (site AGATCAGCTCC) | 0.224 |
| AGATCAGCATGGACCGGTTTTCCCGGTAATCCGTATTTGGG (site AGCTCAGCTCC) | 0.00476 |

| Sequence | recombinant UMI read abundance (log10) |
| --- | --- |
| AGATCAGCATGGACCGGTTTTCCCGGTAATCCGTATTTGGG (site AGGTCAGCTCC) | 0.014 |
| AGATCAGCATGGACCGGTTTTCCCGGTAATCCGTATTTGGG (site AGTTCAGCTCC) | 0.296 |
| AGATCCTCATGGACCGGTTTTCCCGGTAATCCGTATTTGTT (site AGATCCTCTAA) | 2.08 |
| AGATCGACATGGACCGGTTTTCCCGGTAATCCGTATTTGTT (site AGATCGACTAA) | 0.688 |
| AGATCGACATGGACCGGTTTTCCCGGTAATCCGTATTTGTT (site CGATCGACTAA) | 0.0123 |
| AGATCGACATGGACCGGTTTTCCCGGTAATCCGTATTTGTT (site GGATCGACTAA) | 0.012 |
| AGATCGACATGGACCGGTTTTCCCGGTAATCCGTATTTGTT (site TGATCGACTAA) | 0.00951 |
| AGATGCGCATGGACCGGTTTTCCCGGTAATCCGTATTTGAG (site AGATGCGCTCT) | 1.86 |
| AGATGGGCATGGACCGGTTTTCCCGGTAATCCGTATTTGGA (site AGATGGGCTTC) | 1.22 |
| AGATTATCATGGACCGGTTTTCCCGGTAATCCGTATTTGCT (site AGATTATCTAG) | 2.71 |
| AGATTATCATGGACCGGTTTTCCCGGTAATCCGTATTTGCT (site CGATCATCTAG) | 0 |
| AGCAAGACATGGACCGGTTTTCCCGGTAATCCGTATTTGCT (site AGCAAGACTAG) | 1.94 |
| AGCAAGACATGGACCGGTTTTCCCGGTAATCCGTATTTGCT (site AGGAAGACTTG) | 0 |
| AGCAAGACATGGACCGGTTTTCCCGGTAATCCGTATTTGGA (site AGCAAGACTTC) | 1.8 |
| AGCAAGACATGGACCGGTTTTCCCGGTAATCCGTATTTGGA (site AGGAAGACTTG) | 0 |
| AGCAAGGCATGGACCGGTTTTCCCGGTAATCCGTATTTGCT (site AGAAAGGCTAG) | 0 |
| AGCAAGGCATGGACCGGTTTTCCCGGTAATCCGTATTTGCT (site AGCAAGGCTAG) | 2.61 |
| AGCAAGGCATGGACCGGTTTTCCCGGTAATCCGTATTTGCT (site AGGAAGGCTAG) | 0.0349 |
